Experiments:
[1] = test system: cardiac fractional shortening; assay: Echocardiography of rat cardiac contractility, continuous IV infusion; assay type: in vivo, Sprague Dawley rats; conditions: Mean±S.D., read-out: estimated IC50 (plasma concentration at which fractional shortening is 50% of pre-dose baseline)
Protocol: (§1) Assessment of in vivo cardiac function by echocardiography was performed in male Sprague Dawley rats under isoflurane (1-3%) anesthesia. 2-D M-mode images of the left ventricle were acquired in the parasternal long-axis view before, during, and after administration of compounds by continuous IV infusion or oral gavage. In vivo fractional shortening was determined by M-mode image analysis with the following calculation: ((End diastolic diameter−end systolic diameter)/end diastolic diameter×100). For continuous IV infusion experiments, three pre-dose baseline M-mode images were taken at 1 minute intervals prior to infusion of compound. Compounds were formulated in 50% Propylene Glycol (PG): 16% Captisol: 10% dimethylacetamide (DMA) and delivered via a jugular vein catheter at the rate of 1 mL/kg/h. During infusion, M-mode images were taken at 5 minute intervals. The infusion stopped when fractional shortening reached up to a 60% reduction from baseline. Blood samples were taken to determine the plasma concentration of the compounds. Data was reported as an estimated IC50 value, which is the concentration at which fractional shortening is 50% of the pre-dose baseline contractility.

[2] = test system: adult rat ventricular myocytes; assay: Myocyte contractility assay (fractional shortening, edge detection); assay type: cell-based, Sprague-Dawley rats; conditions: 5 μM, 5 min perfusion, 5 cells tested
Protocol: Adult male Sprague-Dawley rats were anesthetized and the hearts were quickly excised, rinsed and the ascending aorta was cannulated. Continuous retrograde perfusion was initiated on the hearts at a perfusion pressure of 60 cm H2O. Hearts were first perfused with a nominally Ca^2+-free modified Krebs solution of the following composition: 113 mM NaCl, 4.7 mM KCl, 0.6 mM KH2PO4, 0.6 mM Na2HPO4, 1.2 mM MgSO4, 12 mM NaHCO3, 10 mM KHCO3, 30 mM taurine, 5.5 mM glucose and 10 mM Hepes (all Sigma). This medium is not recirculated and is continually aerated with a 95% O2/5% CO2 mixture. […]
Aliquots of myocytes in Tyrode's buffer were placed in perfusion chambers (series 20 RC-27NE; Warner Instruments) complete with heating platforms. […] Contractility of the myocytes and contraction and relaxation velocities were then recorded using edge detection.
Five or more individual myocytes were tested per compound from two or more different myocyte preparations. […] These average transients were analyzed using the IonWizard software (IonOptix) to determine changes in diastolic length and fractional shortening. Fractional shortening was calculated as: ((resting length−length at peak contraction) divided by the resting length). The percent change in fractional shortening from baseline was calculated as: ((post-dose fractional shortening/basal fractional shortening)*100). […]

[3] = test system: cardiac fractional shortening; assay: Echocardiography of rat cardiac contractility, oral dosing; assay type: in vivo, Sprague Dawley rats
Protocol: as §1, with “contractility. […] For oral dosing studies, three pre-dose baseline M-Mode images were taken at 1 minute intervals prior to compound administration. (R)—N-(5-(5-isopropyl-1,2,4-oxadiazol-3-yl)-2,3-dihydro-1H-inden-1-yl)-2-methyl-2H-tetrazole-5-carboxamide was formulated in a 0.5% hydroxypropyl methylcellulose 2910 (HPMC 2910): 0.1% Tween 80 suspension and delivered as a single dose (5 mL/kg) by oral gavage. Rats were lightly anesthetized for M-Mode echocardiography measurements at select time points over a 24 hour period. Different dose levels were evaluated. The compound effect on cardiac fractional shortening at the highest dose evaluated is presented below as a percent reduction of baseline fractional shortening (=100%). Concurrent with echocardiography measurements, blood samples were taken to determine the corresponding compound plasma concentration.” for “contractility.”

[4] = target: T1, bovine cardiac myofibrils (Bos taurus, UniProt Q9BE39); assay: Skinned bovine cardiac myofibril ATPase assay (PK/LDH-coupled); assay type: biochemical; conditions: steady-state ATPase, Ca2+ giving 75% activation of myofibril ATPase
T1 construct: full-length cardiac myosin in the context of the native sarcomere; from tissue; host or cells: bovine cardiac left ventricular tissue (Triton X-100 skinned myofibrils)
T1 sequence (Q9BE39 whole entry): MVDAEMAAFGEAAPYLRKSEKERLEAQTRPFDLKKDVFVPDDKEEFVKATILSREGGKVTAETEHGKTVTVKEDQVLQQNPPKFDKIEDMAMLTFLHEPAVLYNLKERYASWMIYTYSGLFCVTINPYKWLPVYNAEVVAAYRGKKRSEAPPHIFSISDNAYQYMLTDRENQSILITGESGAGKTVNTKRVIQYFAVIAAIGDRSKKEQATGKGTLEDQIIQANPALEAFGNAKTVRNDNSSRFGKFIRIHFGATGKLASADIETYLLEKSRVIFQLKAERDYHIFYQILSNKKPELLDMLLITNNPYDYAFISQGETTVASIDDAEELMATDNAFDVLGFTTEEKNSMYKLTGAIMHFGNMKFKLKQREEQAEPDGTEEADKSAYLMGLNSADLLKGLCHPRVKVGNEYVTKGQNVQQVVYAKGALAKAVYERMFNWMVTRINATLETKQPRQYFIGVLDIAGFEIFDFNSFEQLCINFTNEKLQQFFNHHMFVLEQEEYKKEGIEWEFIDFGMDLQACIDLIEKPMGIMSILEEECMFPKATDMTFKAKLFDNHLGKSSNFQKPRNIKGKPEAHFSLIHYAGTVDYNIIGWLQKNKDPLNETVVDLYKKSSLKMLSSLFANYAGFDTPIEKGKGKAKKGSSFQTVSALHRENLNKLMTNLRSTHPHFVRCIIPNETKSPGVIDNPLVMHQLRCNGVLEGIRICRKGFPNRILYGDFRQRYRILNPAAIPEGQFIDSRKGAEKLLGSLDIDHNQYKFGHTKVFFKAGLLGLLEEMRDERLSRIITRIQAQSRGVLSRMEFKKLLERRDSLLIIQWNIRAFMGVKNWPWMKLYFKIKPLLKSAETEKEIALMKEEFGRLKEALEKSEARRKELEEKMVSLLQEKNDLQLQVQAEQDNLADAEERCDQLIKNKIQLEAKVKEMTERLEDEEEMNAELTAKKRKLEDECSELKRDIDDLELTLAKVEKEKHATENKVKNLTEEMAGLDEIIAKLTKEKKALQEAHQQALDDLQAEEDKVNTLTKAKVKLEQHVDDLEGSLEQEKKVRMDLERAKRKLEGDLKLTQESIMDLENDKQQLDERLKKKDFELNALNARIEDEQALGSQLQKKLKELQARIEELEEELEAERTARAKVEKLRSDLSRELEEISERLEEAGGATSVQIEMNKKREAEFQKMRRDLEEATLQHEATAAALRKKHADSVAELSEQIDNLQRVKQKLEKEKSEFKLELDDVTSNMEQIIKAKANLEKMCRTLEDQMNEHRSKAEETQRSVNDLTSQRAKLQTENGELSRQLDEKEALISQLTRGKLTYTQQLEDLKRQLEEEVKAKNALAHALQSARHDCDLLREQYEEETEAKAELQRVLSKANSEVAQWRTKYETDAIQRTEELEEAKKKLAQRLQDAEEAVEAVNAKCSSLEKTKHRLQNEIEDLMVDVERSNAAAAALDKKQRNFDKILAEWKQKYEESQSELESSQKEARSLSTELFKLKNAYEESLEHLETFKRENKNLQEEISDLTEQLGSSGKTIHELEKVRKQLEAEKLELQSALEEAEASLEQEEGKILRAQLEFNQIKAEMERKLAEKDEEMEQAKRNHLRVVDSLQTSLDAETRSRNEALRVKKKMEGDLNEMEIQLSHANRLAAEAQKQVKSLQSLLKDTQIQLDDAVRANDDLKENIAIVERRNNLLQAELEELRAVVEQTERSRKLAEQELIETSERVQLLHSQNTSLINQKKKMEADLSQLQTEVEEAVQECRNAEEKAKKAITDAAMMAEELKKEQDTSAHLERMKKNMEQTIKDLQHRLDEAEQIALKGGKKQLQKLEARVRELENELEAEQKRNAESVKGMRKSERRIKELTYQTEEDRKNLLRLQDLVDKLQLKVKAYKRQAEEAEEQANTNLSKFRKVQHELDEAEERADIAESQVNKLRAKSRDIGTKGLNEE
T1 sequence (P85100 whole entry partner): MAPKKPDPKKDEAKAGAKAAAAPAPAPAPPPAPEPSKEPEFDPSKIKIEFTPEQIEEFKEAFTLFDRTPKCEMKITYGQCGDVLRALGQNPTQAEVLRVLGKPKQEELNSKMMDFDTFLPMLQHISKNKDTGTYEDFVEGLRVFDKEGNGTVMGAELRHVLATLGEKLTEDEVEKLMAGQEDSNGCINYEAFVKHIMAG
T1 sequence (Q3SZE5 whole entry partner): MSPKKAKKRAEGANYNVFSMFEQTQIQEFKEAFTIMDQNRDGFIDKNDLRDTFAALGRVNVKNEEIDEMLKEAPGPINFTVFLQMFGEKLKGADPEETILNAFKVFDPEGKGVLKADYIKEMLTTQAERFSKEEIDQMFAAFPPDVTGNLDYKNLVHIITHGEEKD
Protocol: To evaluate the effect of (R)—N-(5-(5-isopropyl-1,2,4-oxadiazol-3-yl)-2,3-dihydro-1H-inden-1-yl)-2-methyl-2H-tetrazole-5-carboxamide on the ATPase activity of full-length cardiac myosin in the context of the native sarcomere, skinned myofibril assays were performed. Bovine cardiac myofibrils were obtained by homogenizing bovine cardiac left ventricular tissue in the presence of a detergent such as triton X-100. Such treatment removes membranes and a majority of the soluble cytoplasmic proteins but leaves intact the cardiac sarcomeric acto-myosin apparatus. Myofibril preparations retain the ability to hydrolyze ATP in a Ca^2+ regulated manner. […] Small molecule agents were assessed for their ability to inhibit the steady-state ATPase activity of bovine cardiac myofibrils using pyruvate kinase and lactate dehydrogenase (PK/LDH)-coupled enzyme system. This assay regenerates myosin-produced ADP into ATP by oxidizing NADH, producing an absorbance change at 340 nm. Prior to testing small molecule agents, the bovine cardiac myofibrils were assessed for their calcium responsiveness and the calcium concentration that achieves either a 50% (pCa50) or 75% (pCa75) activation of the myofibril system was chosen as the final condition for assessing the inhibitory activity of the small molecule agents.

Q: What does the source list for `CC(C)c1nc(-c2ccc3c(c2)CC[C@H]3NC(=O)c2nnn(C)n2)no1` [(R)—N-(5-(5-isopropyl-1,2,4-oxadiazol-3-yl)-2,3-dihydro-1H-inden-1-yl)-2-methyl-2H-tetrazole-5-carboxamide]?
A: IC50 [1]: 2700 ± 120 nM; % FS (% reduction from baseline) ± SEM [2]: 67.8 ± −5.4%; FS (% reduction from baseline) at 1-2 h post dose (Mean ± S.D.) ([3]; 6 mg/kg single oral gavage, 1-2 h post dose): 40 ± 9%; FS (% reduction from baseline) at 4 h post dose (Mean ± S.D.) ([3]; 6 mg/kg single oral gavage, 4 h post dose): 18 ± 11%; IC50 ([3]; Rattus norvegicus, oral dosing, read-out: estimated IC50 (plasma concentration, fractional shortening)): 2900 nM; estimated IC10 (plasma concentration, fractional shortening) ([3]; oral dosing): 0.7 µM; IC15 (CDMF75) [4]: 0.5 µM

Reference: patent publication US12649732B2, “Polymorphs of (R)-N-(5-(5-isopropyl-1,2,4-oxadiazol-3-yl)-2,3-dihydro-1H-inden-1-yl)-2-methyl-2H-tetrazole-5-carboxamide” (Cytokinetics, Inc., priority 2019, dated 2026)
